Reference: US5604206A, “Complexes containing S(+) phenyl alkane acids and amino sugars” (priority 1990, dated 1997)

Key:
clinical = details: human, in vivo, po
[1] = Pharmacokinetics after a single oral dose in test persons (Table 1)
[2] = single oral dose, tablet, 150 mg ibuprofen active substance, 4 test persons, Mean ± SD

SMILES	tmax (clinical) [h]	tlag [1, 2] [h]	tmax (rapid onset effect) ([1]; 150 mg active substance) [h]	AUC [1, 2] [ng·h/mL]	Cmax [1, 2] [ng/mL]	tmax [1, 2] [h]
CC(C)Cc1ccc([C@H](C)C(=O)O)cc1 [S(+)-ibuprofen free acid, S(+)-ibuprofen, reference compound]	2.1 ± 0.2	0.50 ± 0.1	–	–	–	–
CC(C)Cc1ccc([C@H](C)C(=O)O)cc1.CNC[C@H](O)[C@@H](O)[C@H](O)[C@H](O)CO [Sugar complex, S(+)-ibuprofen-N-methyl-2-deoxy-glucitol]	–	0.1 ± 0.02	0.25 to 0.333	55000 ± 10200	24500 ± 6700	0.25 ± 0.11
